Measurements published in patent US9125388B2, “Biological control” (Isis Innovation Limited, priority 1999, dated 2015).

What was measured:
Assay type in all cases: in vivo, Drosophila melanogaster
[1] = tested on: Hsp26 tTa, tRe Msl-1^Mpu on the 2nd chromosome; test: Recombinant chromosome experiments: parents raised on supplement, progeny on normal food, adults by sex (25, 18 or 29° C.); conditions: 25° C.
Method: (§1) 40-45 young females and 20-25 young males raised at 25° C. upon food with the indicated tetracycline supplement were allowed to mate, then transferred to normal (tetracycline-free) food after 3-4 days. These flies were transferred to fresh vials of normal food every day for 12 days, then removed on the 13th day. All the vials were incubated at 25° C. while the progeny developed. The numbers of male and female progeny emerging as adults in each vial were recorded.
(§2) A standard range of additive concentrations were used in the following experiments (0.05-20 μg/ml). […] (=“not done”)
(§3) All the preceding experiments were performed at 25° C., the standard temperature for Drosophila culture. However, the insects in the wild would clearly be exposed to varying temperatures, so we investigated the extent to which the efficiency of the system is affected by temperature. As with the recombinant chromosome experiments, 40-45 young virgin females and 20-25 young males raised at 25° C. upon food with the indicated tetracycline supplement were allowed to mate, then transferred to normal (tetracycline-free) food after 3-4 days. These flies were transferred to fresh vials of normal food every day. The numbers of male and female progeny emerging as adults in each vial were recorded. These experiments were performed at either 18° C. or 29° C.

[2] = tested on: Sxlp^e tTa, tRe Msl-1^Mpu on the X chromosome; test: as above; conditions: 25° C.
Method: as §1, §2, §3

[3] = tested on: Sxl^pe-tTA, tRE-Ras64B^V12 on the third chromosome; test: as above; conditions: 25° C.
Method: as §1, §2, §3

[4] = tested on: Sxl^pe-tTA, tRE-Ras64B^V12 on the X chromosome; test: as above; conditions: for Female progeny emerging as adults / Male progeny emerging as adults: 25° C.
Method: as §1, §2, §3

[5] = tested on: Sxl^pe-tTA, tRE-Msl-2^Nopu on the third chromosome; test: as above; conditions: 25° C.
Method: as §1, §2, §3

[6] = tested on: Yp3 tTa, tRe Msl-2^Nopu on the 2nd chromosome; test: as above; conditions: 25° C.
Method: as §1, §2, §3

[7] = tested on: Hsp26 tTa, tRe Msl-2^Nopu on the 2nd chromosome; test: as above; conditions: 25° C.
Method: as §1, §2, §3

[8] = tested on: Sxl^pe-tTA, tRE-Msl-2^Nopu on the X chromosome; test: as above; conditions: 25° C.
Method: as §1, §2, §3

[9] = tested on: Recombinant chromosome stocks; test: Maintenance of stocks on non-antibiotic tetracycline analogues; conditions: for concentration on which recombinant chromosome stocks can readily be maintained / repressing tTA responsive gene expression: 25° C.
Method: Recombinant chromosome stocks can readily be maintained at 25° C. on epioxytetracycline concentrations of 1 μg/ml or anhydrotetracycline concentrations of 0.1 μg/ml, showing that these non-antibiotic tetracycline analogues are effective in repressing tTA responsive gene expression.
as §2

[10] = tested on: Yp3 tTa, tRe Msl-1^Mpu on the 2nd chromosome; test: Recombinant chromosome experiments: parents raised on supplement, progeny on normal food, adults by sex (25, 18 or 29° C.); conditions: 25° C.
Method: as §1
Since there is no meiotic recombination in Drosophila melanogaster males, any of these recombinant chromosomes could be used in a genetic sexing or insect control program, if required.
as §2, §3

[11] = tested on: Yp3 tTa, tRe Ras64B^V12 on the 2nd chromosome; test: Recombinant chromosome experiments / maternal transmission of Tc (Table 1): parents raised on supplement, progeny on normal food, adults by sex; conditions: 25° C.
Method: as §1, §2, §3
We used a strain of Drosophila in which females, but not males, require Tc for viability.
A strain homozygous for second chromosome insertions of both Yp3-tTA and tRe-Ras64B^V12 was tested for the effect of parental dietary Tc. 40-45 young females and 20-25 young males raised at 25° C. upon food with the indicated tetracycline supplement were allowed to mate, then transferred to normal (tetracycline-free) food after 3-4 days. These flies were transferred to fresh vials of normal food every day for 12 days, and then removed on the 13th day. All the vials were incubated at 25° C. while the progeny developed. The total numbers of male and female progeny emerging as adults were recorded.

[12] = parents raised on anhydrotetracycline 0.05 μg/ml
[13] = parents raised on anhydrotetracycline 0.1 μg/ml
[14] = parents raised on anhydrotetracycline 1 μg/ml
[15] = parents raised on anhydrotetracycline 5 μg/ml
[16] = parents raised on anhydrotetracycline 20 μg/ml
[17] = parents raised on epioxytetracycline 1 μg/ml
[18] = parents raised on epioxytetracycline 5 μg/ml
[19] = parents raised on epioxytetracycline 20 μg/ml
[20] = Epioxytetracycline Conc. 1 μg/ml
[21] = Epioxytetracycline Conc. 5 μg/ml
[22] = Epioxytetracycline Conc. 20 μg/ml

SMILES: Cc1c2c(c(O)c3c(O)cccc13)C(=O)[C@]1(O)C(=O)C(C(N)=O)=C(O)[C@@H](N(C)C)[C@@H]1C2 [anhydrotetracycline]
- Female progeny emerging as adults [1, 12]: 0
- Male progeny emerging as adults [1, 12]: 1492
- Female progeny emerging as adults [1, 13]: 0
- Male progeny emerging as adults [1, 13]: 1426
- Female progeny emerging as adults [1, 14]: 0
- Male progeny emerging as adults [1, 14]: 1418
- Female progeny emerging as adults [1, 15]: 0
- Male progeny emerging as adults [1, 15]: 1457
- Female progeny emerging as adults [1, 16]: 8
- Male progeny emerging as adults [1, 16]: 1499
- Female progeny emerging as adults [2, 12]: 0
- Male progeny emerging as adults [2, 12]: 1582
- Female progeny emerging as adults [2, 13]: 0
- Male progeny emerging as adults [2, 13]: 1499
- Female progeny emerging as adults [2, 14]: 0
- Male progeny emerging as adults [2, 14]: 1474
- Female progeny emerging as adults [2, 15]: 0
- Male progeny emerging as adults [2, 15]: 1619
- Female progeny emerging as adults [2, 16]: 5
- Male progeny emerging as adults [2, 16]: 1533
- Female progeny emerging as adults [3, 12]: 0
- Male progeny emerging as adults [3, 12]: 1381
- Female progeny emerging as adults [3, 13]: 0
- Male progeny emerging as adults [3, 13]: 1304
- Female progeny emerging as adults [3, 14]: 0
- Male progeny emerging as adults [3, 14]: 1121
- Female progeny emerging as adults [3, 15]: 0
- Male progeny emerging as adults [3, 15]: 1269
- Female progeny emerging as adults [3, 16]: 1
- Male progeny emerging as adults [3, 16]: 1247
- Female progeny emerging as adults [4, 12]: 0
- Male progeny emerging as adults [4, 12]: 1452
- Female progeny emerging as adults [4, 13]: 0
- Male progeny emerging as adults [4, 13]: 1528
- Female progeny emerging as adults [4, 14]: 0
- Male progeny emerging as adults [4, 14]: 1614
- Female progeny emerging as adults [4, 15]: 0
- Male progeny emerging as adults [4, 15]: 1448
- Female progeny emerging as adults [4, 16]: 5
- Male progeny emerging as adults [4, 16]: 1592
- Female progeny emerging as adults [5, 12]: 0
- Male progeny emerging as adults [5, 12]: 1331
- Female progeny emerging as adults [5, 13]: 0
- Male progeny emerging as adults [5, 13]: 1431
- Female progeny emerging as adults [5, 14]: 0
- Male progeny emerging as adults [5, 14]: 1309
- Female progeny emerging as adults [5, 15]: 0
- Male progeny emerging as adults [5, 15]: 1359
- Female progeny emerging as adults [5, 16]: 1
- Male progeny emerging as adults [5, 16]: 1362
- Female progeny emerging as adults [6, 12]: 0
- Male progeny emerging as adults [6, 12]: 1316
- Female progeny emerging as adults [6, 13]: 0
- Male progeny emerging as adults [6, 13]: 1358
- Female progeny emerging as adults [6, 14]: 0
- Male progeny emerging as adults [6, 14]: 1354
- Female progeny emerging as adults [6, 15]: 0
- Male progeny emerging as adults [6, 15]: 1344
- Female progeny emerging as adults [6, 16]: 1
- Male progeny emerging as adults [6, 16]: 1312
- Female progeny emerging as adults [7, 12]: 0
- Male progeny emerging as adults [7, 12]: 707
- Female progeny emerging as adults [7, 13]: 0
- Male progeny emerging as adults [7, 13]: 1457
- Female progeny emerging as adults [7, 14]: 0
- Male progeny emerging as adults [7, 14]: 1437
- Female progeny emerging as adults [7, 15]: 0
- Male progeny emerging as adults [7, 15]: 773
- Female progeny emerging as adults [7, 16]: 5
- Male progeny emerging as adults [7, 16]: 1447
- Female progeny emerging as adults [8, 12]: 0
- Male progeny emerging as adults [8, 12]: 1114
- Female progeny emerging as adults [8, 13]: 0
- Male progeny emerging as adults [8, 13]: 1120
- Female progeny emerging as adults [8, 14]: 0
- Male progeny emerging as adults [8, 14]: 1130
- Female progeny emerging as adults [8, 15]: 0
- Male progeny emerging as adults [8, 15]: 1148
- Female progeny emerging as adults [8, 16]: 0
- Male progeny emerging as adults [8, 16]: 1128
- concentration on which recombinant chromosome stocks can readily be maintained [9]: 0.1 µg/mL
- repressing tTA responsive gene expression [9]: effective
- Female progeny emerging as adults [10, 12]: 0
- Male progeny emerging as adults [10, 12]: 1339
- Female progeny emerging as adults [10, 13]: 0
- Male progeny emerging as adults [10, 13]: 1263
- Female progeny emerging as adults [10, 14]: 0
- Male progeny emerging as adults [10, 14]: 1265
- Female progeny emerging as adults [10, 15]: 0
- Male progeny emerging as adults [10, 15]: 1284
- Female progeny emerging as adults [10, 16]: 0
- Male progeny emerging as adults [10, 16]: 1297
- Female progeny emerging as adults [11, 12]: 0
- Male progeny emerging as adults [11, 12]: 1449
- Female progeny emerging as adults [11, 13]: 0
- Male progeny emerging as adults [11, 13]: 1411
- Female progeny emerging as adults [11, 14]: 0
- Male progeny emerging as adults [11, 14]: 1397
- Female progeny emerging as adults [11, 15]: 0
- Male progeny emerging as adults [11, 15]: 1430
- Female progeny emerging as adults [11, 16]: 2
- Male progeny emerging as adults [11, 16]: 1428

SMILES: CN(C)[C@H]1C(O)=C(C(N)=O)C(=O)[C@@]2(O)C(O)=C3C(=O)c4c(O)cccc4[C@@](C)(O)[C@H]3[C@H](O)[C@@H]12 [epioxytetracycline]
- Female progeny emerging as adults [1, 17]: 0
- Male progeny emerging as adults [1, 17]: 1243
- Female progeny emerging as adults [1, 18]: 0
- Male progeny emerging as adults [1, 18]: 1409
- Female progeny emerging as adults [1, 19]: 0
- Male progeny emerging as adults [1, 19]: 1373
- Female progeny emerging as adults [2, 17]: 0
- Male progeny emerging as adults [2, 17]: 1483
- Female progeny emerging as adults [2, 18]: 0
- Male progeny emerging as adults [2, 18]: 1585
- Female progeny emerging as adults [2, 19]: 0
- Male progeny emerging as adults [2, 19]: 1565
- Female progeny emerging as adults [3, 17]: 0
- Male progeny emerging as adults [3, 17]: 1165
- Female progeny emerging as adults [3, 18]: 0
- Male progeny emerging as adults [3, 18]: 1279
- Female progeny emerging as adults [3, 19]: 0
- Male progeny emerging as adults [3, 19]: 1257
- Female progeny [4, 20]: 0
- Male progeny [4, 20]: 1306
- Female progeny [4, 21]: 0
- Male progeny [4, 21]: 1581
- Female progeny [4, 22]: 0
- Male progeny [4, 22]: 1495
- Female progeny emerging as adults [5, 17]: 0
- Male progeny emerging as adults [5, 17]: 1250
- Female progeny emerging as adults [5, 18]: 0
- Male progeny emerging as adults [5, 18]: 1300
- Female progeny emerging as adults [5, 19]: 0
- Male progeny emerging as adults [5, 19]: 1364
- Female progeny emerging as adults [7, 17]: 0
- Male progeny emerging as adults [7, 17]: 1362
- Female progeny emerging as adults [7, 18]: 0
- Male progeny emerging as adults [7, 18]: 1181
- Female progeny emerging as adults [7, 19]: 0
- Male progeny emerging as adults [7, 19]: 1403
- Female progeny emerging as adults [8, 17]: 0
- Male progeny emerging as adults [8, 17]: 1076
- Female progeny emerging as adults [8, 18]: 0
- Male progeny emerging as adults [8, 18]: 1119
- Female progeny emerging as adults [8, 19]: 0
- Male progeny emerging as adults [8, 19]: 1159
- concentration on which recombinant chromosome stocks can readily be maintained [9]: 1 µg/mL
- repressing tTA responsive gene expression [9]: effective
- concentration required to repress gene expression, compared with tetracycline ([9]; in vivo): slightly higher concentrations are required
- stock maintenance at the two lowest concentrations ([9]; standard range of additive concentrations 0.05-20 μg/ml): unable to maintain stock
- Female progeny emerging as adults [10, 17]: 0
- Male progeny emerging as adults [10, 17]: 1350
- Female progeny emerging as adults [10, 18]: 0
- Male progeny emerging as adults [10, 18]: 1308
- Female progeny emerging as adults [10, 19]: 0
- Male progeny emerging as adults [10, 19]: 1343
- Female progeny emerging as adults [11, 17]: 0
- Male progeny emerging as adults [11, 17]: 1431
- Female progeny emerging as adults [11, 18]: 0
- Male progeny emerging as adults [11, 18]: 1424
- Female progeny emerging as adults [11, 19]: 0
- Male progeny emerging as adults [11, 19]: 1387
